Reference: US8030489B2, “Ornithine derivative” (Astellas Pharma Inc., priority 2007, dated 2011)
Values after ≈ are worked out from the molar mass of the structure shown.

Experiments:
rat EP4 receptor = molecular target: T1, rat EP4 receptor (Rattus norvegicus, UniProt P43114); test: Evaluation test on rat EP4 receptor affinity ([3H]PGE2 binding assay); conditions: rat EP4 expressed in HEK293 membrane fraction, [3H]PGE2 0.3 nM
T1 construct: expressed in transfected cells; host or cells: HEK293
Procedure: Test Example 1: Evaluation Test on Rat EP4 Receptor Affinity
Cell Culture and Transfection
Using a 10 cm collagen-coated dish (Asahi Glass), HEK293 cells were cultured in a D-MEM culture medium, washed with a phosphate buffer saline (PBS), the culture medium was removed off at a confluence (90 to 100% density state), and then the cells were detached with N,N,N′,N′-tetrakis(carboxymethyl)ethylenediamine (EDTA). The cells were counted and seeded on a 15 cm collagen-coated dish to a confluence of 70%. The next day, to an Opti-MEM culture medium at 1.2 mL/dish was added Lipofectamine 2000 (Invitrogen) at 60 μL/dish, followed by being left to stand at room temperature for 5 minutes. A plasmid in which a rat EP4 (alignment number 1) had been inserted into a TA cloning site of pcDNA3.1-V5-His-topo was added thereto to 15 μg/dish. After leaving it to stand at room temperature for 30 minutes, the resultant was added to the dish, and cultured for 20 to 24 hours. The cell culture was carried out in a CO2 incubator (37° C., 5% CO2).
Preparation of Membrane Fraction
The culture medium was removed by suction, 10 mL of cooled PBS was added thereto per 15 cm dish, and the cells were scraped using a cell scraper (Sumitomo Bakelite). They were washed with cooled PBS (1,200 rpm, 4° C., 5 min), and then suspended in 6 mL of cooled 20 mM Tris-HCl (pH 7.4; Nakalai Tesque Inc., including 5 mM EDTA (Nakalai Tesque Inc.) per dish. Then, it was homogenized using a Polytron and the homogenate was centrifuged (26,000 rpm, 20 min, 4° C.). The obtained precipitate was resuspended in cooled 20 mM Tris-HCl, and homogenized again using a Polytron, and the homogenate was centrifuged (26,000 rpm, 20 min, 4° C.). The obtained precipitate was resuspended in 50 mM HEPES (pH 7.5; Dojindo Laboratories) to 1 mL per dish, homogenized again using a Polytron, and freeze-stored at −80° C. as a membrane fraction. At this time, a part thereof was used for the measurement of the protein concentration. Measurement of the protein concentration was carried out using a Bio-Rad Protein assay kit (Bio-Rad Laboratories) in accordance with the appended standard Protocol in duplicate.
[^3H] PGE2 50 μL (final concentration 0.3 nM; Perkin Elmer), 100 μL (20 μg/well) of a membrane fraction prepared from the rat EP4 expression cell, and 50 μL of a test compound were mixed in a 96-well microplate (Sumitomo Bakelite), incubated at room temperature for 1 hour, then filtered by suction on a UniFilter-96 GF/B (Perkin Elmer) using a FilterMate Harvester (Perkin Elmer), and washed three times with 300 μL/well of a cooled assay buffer. Dilution of [^3H]PGE2 and the membrane fraction was carried out using an assay buffer (50 mM HEPES, 10 mM MgCl2), and dilution of the test compound and the unlabeled PGE2 was carried out using DMSO and an assay buffer. Further, in the case of the addition of a human serum albumin (HSA), dilution was carried out using an assay buffer containing 4% HSA (final concentration 1%; Sigma). The UniFilter-96 GF/B was treated by preliminarily washing twice with 200 μL/well of a cooled assay buffer. The UniFilter-96 GF/B after filtration was dried in a dryer overnight, 50 μL/well of MicroScint20 (Perkin Elmer) was added thereto, and then the radioactivity was measured using a TopCount (Perkin Elmer). For measurement of the non-specific binding, an unlabeled PGE2 (final concentration 1 μM; Cayman) was added. All of the measurements were carried out in duplicate, and the specific binding amount was determined by subtracting the non-specific binding amount from the total binding amount.
According to Test Example 1 as above, the rat EP4 receptor affinity (Ki) of the compound of the formula (I) was measured.

[1] = tested on: urinary albumin excretion (UAE) in STZ diabetic rats; test: Effect on urine albumin in streptozotocin-induced (STZ) diabetic rats; type: in vivo, rat; conditions: male Wistar rats, STZ 50 mg/kg i.v.; 30 mg/kg oral, fourth week of administration; vehicle group 3.1±0.7 mg/day
Procedure: Test Example 2: Test to Study the Effect on Urine Albumin in Streptozotocin-induced (STZ) Diabetic Rats.
Eight-week old male Wistar (Crj) rats were divided into groups with unbiased urinary albumin excretion (UAE), and STZ (50 mg/kg) was intravenously administered thereto. From the next day of administration of STZ, the drug was continuously orally administered, and urine was periodically collected in a metabolism cage for 24 hours to measure the UAE.

Solubility test = type: physicochemical; conditions: pH 1.2, simulated gastric fluid, kinetic from dmso stock; first liquid for disintegration test of Japanese Pharmacopoeia, 25° C., shaking 20 hours
Procedure: Test Example 3: Solubility Test
To 13 μL of a 10 mM DMSO solution of a test material that had been prepared in advance was added exactly 1 mL of a first liquid for a disintegration test of Japanese Pharmacopoeia, followed by shaking at 25° C. for 20 hours, thereby giving a sample stock solution. Next, using a filter impregnated with 200 μL of the sample stock solution, 200 μL of a fresh sample stock solution was added for filtration to obtain a liquid, which was taken as a sample solution. Apart from this, to 10 μL of the 10 mM DMSO solution of the test material was added accurately 1 mL of methanol, followed by stirring, thereby giving a standard solution. 10 μL of the sample solution and the standard solution were tested by liquid chromatography, respectively, and the ratio of the peak area of the sample solution to the peak area of the standard solution was determined, thereby calculating the solubility. For example, the solubilities of the compounds of Examples 23, 25, 31, 32, 50, 55, 57, 60, 93, and 284 were 51 μg/mL, 26 μg/mL, ≧53 μg/mL, 46 μg/mL, 47 μg/mL, ≧52 μg/mL, ≧50 μg/mL, 40 μg/mL, ≧53 μg/mL, and <1 μg/mL, respectively.

T1 sequence (P43114 whole entry): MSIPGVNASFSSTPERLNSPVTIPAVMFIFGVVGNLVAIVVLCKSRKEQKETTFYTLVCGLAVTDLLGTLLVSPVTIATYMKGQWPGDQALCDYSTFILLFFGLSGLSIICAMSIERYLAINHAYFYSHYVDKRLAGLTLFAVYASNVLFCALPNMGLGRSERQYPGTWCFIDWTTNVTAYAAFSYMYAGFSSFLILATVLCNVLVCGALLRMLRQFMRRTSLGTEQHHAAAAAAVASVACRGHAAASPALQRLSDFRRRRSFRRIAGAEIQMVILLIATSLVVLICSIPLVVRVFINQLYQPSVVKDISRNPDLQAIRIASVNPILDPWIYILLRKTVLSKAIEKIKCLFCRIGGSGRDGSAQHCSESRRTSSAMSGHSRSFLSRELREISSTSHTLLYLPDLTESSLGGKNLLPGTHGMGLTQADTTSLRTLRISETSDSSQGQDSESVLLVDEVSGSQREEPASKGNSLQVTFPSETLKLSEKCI

Row | SMILES | Ki (rat EP4 receptor) [nM] | urinary albumin excretion (UAE) [1] [mg/day] | solubility at 20 h (Solubility test) [µg/mL]
1 | Cn1c(C(=O)N[C@@H](CCCNC(=O)OCc2ccccc2)C(=O)N[C@H]2CCC[C@H]2C(=O)O)cc2ccccc21 [Example 2, (1R,2S)-2-({N^5-[(benzyloxy)carbonyl]-N^2-[(1-methyl-1H-indol-2-yl)carbonyl]-L-ornithyl}amino)cyclopentanecarboxylic acid] | 0.92 | – | –
2 | Cn1c(C(=O)N[C@@H](CCCNC(=O)OCc2ccccc2)C(=O)N[C@H]2CCCC[C@H]2C(=O)O)cc2ccccc21 [Example 22] | 0.53 | – | –
3 | O=C(NCCC[C@H](NC(=O)c1ccc2ccccc2n1)C(=O)N[C@H]1CCC[C@H]1C(=O)O)OCc1ccccc1 [Example 23] | 0.43 | 0.9 ± 0.1 | 51 (≈ 95.8 µM)
4 | Cn1ccc2ccc(C(=O)N[C@@H](CCCNC(=O)OCc3ccccc3)C(=O)N[C@H]3CCC[C@H]3C(=O)O)cc21 [Example 25] | 0.66 | – | 26 (≈ 48.6 µM)
5 | COc1cccc(C(=O)N[C@@H](CCCNC(=O)OCc2ccccc2)C(=O)N[C@H]2CCC[C@H]2C(=O)O)c1 [Example 26] | 1.6 | – | –
6 | CN(C)c1cccc(C(=O)N[C@@H](CCCNC(=O)OCc2ccccc2)C(=O)N[C@H]2CCC[C@H]2C(=O)O)c1 [Example 31] | 1.1 | – | ≥ 53
7 | O=C(NCCC[C@H](NC(=O)c1cccc(Cl)c1)C(=O)N[C@H]1CCC[C@H]1C(=O)O)OCc1ccccc1 [Example 32] | 1.3 | – | 46 (≈ 89.1 µM)
8 | Cc1cc(C)n(C)c1C(=O)N[C@@H](CCCNC(=O)OCc1ccccc1)C(=O)N[C@H]1CCC[C@H]1C(=O)O [Example 36] | 9.8 | – | –
9 | Cn1ccc2c(C(=O)N[C@@H](CCCNC(=O)OCc3ccccc3)C(=O)N[C@H]3CCC[C@H]3C(=O)O)cccc21 [Example 50] | 0.78 | – | 47 (≈ 87.9 µM)
10 | O=C(/C=C/c1ccccc1O)N[C@@H](CCCNC(=O)OCc1ccccc1)C(=O)N[C@H]1CCC[C@H]1C(=O)O [Example 55] | 0.92 | – | ≥ 52
11 | Cc1cc(C(=O)N[C@@H](CCCNC(=O)OCc2ccccc2)C(=O)N[C@H]2CCC[C@H]2C(=O)O)n(C)c1 [Example 57] | 0.72 | – | ≥ 50
12 | CC(=O)c1cn(C)c2cc(C(=O)N[C@@H](CCCNC(=O)OCc3ccccc3)C(=O)N[C@H]3CCC[C@H]3C(=O)O)ccc12 [Example 60] | 1.1 | – | 40 (≈ 69.4 µM)
13 | O=C(NCCC[C@H](NC(=O)c1cccc(Cl)n1)C(=O)N[C@H]1CCC[C@H]1C(=O)O)OCc1ccccc1 [Example 76] | 1.8 | – | –
14 | Cn1c(C(=O)N[C@@H](CCCNC(=O)OCc2ccccc2)C(=O)N[C@H]2CCC[C@H]2c2nnn[nH]2)cc2ccccc21 [Example 83] | 0.52 | – | –
15 | Cn1ccc2cccc(C(=O)N[C@@H](CCCNC(=O)OCc3ccccc3)C(=O)N[C@H]3CCC[C@H]3C(=O)O)c21 [Example 93] | 0.79 | – | ≥ 53
16 | Cn1c(C(=O)N[C@@H](CCCNC(=O)OCc2ccccc2)C(=O)N[C@H]2CCC[C@H]2c2n[nH]c(=S)o2)cc2ccccc21 [Example 119] | 2.1 | – | –
17 | Cn1c([C@@H]2CCC[C@@H]2NC(=O)[C@H](CCCNC(=O)OCc2ccccc2)NC(=O)c2cc3ccccc3n2C)n[nH]c1=S [Example 120] | 9.8 | – | –
18 | CC(C)COC(=O)NCCC[C@H](NC(=O)c1cc2ccccc2n1C)C(=O)N[C@H]1CCC[C@H]1C(=O)O [Example 159] | 6 | – | –
19 | Cn1c(C(=O)N[C@@H](CCCNC(=O)OCC2CCCCC2)C(=O)N[C@H]2CCC[C@H]2C(=O)O)cc2ccccc21 [Example 160] | 0.43 | – | –
20 | COc1ccc2[nH]c(C(=O)N[C@@H](CCCNC(=O)OCc3ccccc3)C(=O)N[C@H]3CCC[C@H]3c3nnn[nH]3)cc2c1 [Example 164] | 0.29 | – | –
21 | COc1ccc2[nH]c(C(=O)N[C@@H](CCCNC(=O)OCc3ccccc3)C(=O)N[C@H]3CCC[C@H]3C(=O)O)cc2c1 [Example 165] | 0.26 | – | –
22 | COc1ccc2c(c1)cc(C(=O)N[C@@H](CCCNC(=O)OCc1ccccc1)C(=O)N[C@H]1CCC[C@H]1c1nnn[nH]1)n2C [Example 169] | 0.29 | – | –
23 | Cn1c(C(=O)N[C@@H](CCCNC(=O)OCc2ccccc2)C(=O)N[C@H]2CCC[C@H]2C(=O)NS(=O)(=O)CCCO)cc2ccccc21 [Example 176] | 4 | – | –
